Experimental findings from US8557796B2, “Substituted 1-oxa-2,8-diaza-spiro [4,5] dec-2-ene derivatives and related treatment methods” (Gruenenthal GmbH, priority 2001, dated 2013) are described below.

By inhibition is commonly meant the share of the control response that was lost under treatment. Low readings indicate little suppression, high ones strong suppression.

This assay deals with T1, 5HT-uptake (Rattus norvegicus, UniProt P31652).
T1 construct: synaptosomes from rat brain regions were freshly isolated; from tissue; host or cells: P2 synaptosome fraction from rat brain regions
T1 sequence (P31652 whole entry): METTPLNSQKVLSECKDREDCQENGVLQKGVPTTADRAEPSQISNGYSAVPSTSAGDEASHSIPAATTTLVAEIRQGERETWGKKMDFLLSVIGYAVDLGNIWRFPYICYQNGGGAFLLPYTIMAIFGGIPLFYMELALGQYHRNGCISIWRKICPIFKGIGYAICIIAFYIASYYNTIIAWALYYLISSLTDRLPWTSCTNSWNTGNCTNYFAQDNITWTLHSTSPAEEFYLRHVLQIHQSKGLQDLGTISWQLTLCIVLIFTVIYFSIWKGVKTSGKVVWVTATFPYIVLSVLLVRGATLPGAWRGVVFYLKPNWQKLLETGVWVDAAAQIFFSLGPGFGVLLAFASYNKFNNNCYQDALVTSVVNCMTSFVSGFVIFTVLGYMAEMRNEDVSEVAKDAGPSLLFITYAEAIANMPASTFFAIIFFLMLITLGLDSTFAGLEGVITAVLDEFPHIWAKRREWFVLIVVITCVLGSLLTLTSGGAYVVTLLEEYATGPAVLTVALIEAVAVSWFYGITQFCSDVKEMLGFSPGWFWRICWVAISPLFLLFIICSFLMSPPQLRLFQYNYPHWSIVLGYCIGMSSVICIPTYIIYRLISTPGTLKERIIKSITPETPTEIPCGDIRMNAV
Briefly: Serotonin uptake inhibition (5HT uptake) in synaptosomes. Type of assay: biochemical. The following applies: rat brain synaptosomes.
From the text: Tests on Serotonin Uptake (5HT Uptake Inhibition)
In order to be able to carry out these in vitro studies, synaptosomes from rat brain regions were freshly isolated.
On to `O=C(C1=NOC2(CCN(S(=O)(=O)c3cccc(C(F)(F)F)c3)CC2)C1)N1CCN(Cc2ccc3ccccc3c2)CC1` [Example 35, (4-naphthalen-2-ylmethyl-piperazin-l-yl)-[8-(3-trifluoromethyl-benzenesulphonyl)-1-oxa-2,8-diaza-spiro[4,5]dec-2-en-3-yl]-methanone], for which the “5HT-uptake, 10 μM, % inhibition” value is given as 44%.

Consider `O=C(NCc1cc(F)cc(C(F)(F)F)c1)C1=NOC2(CCN(S(=O)(=O)c3cc(Cl)ccc3Cl)CC2)C1` [Example 39, 8-(2,5-dichloro-benzenesulphonyl)-1-oxa-2,8-diaza-spiro[4,5]dec-2-ene-3-carboxylic acid 3-fluoro-5-trifluoromethyl-benzylamide], for which the inhibition at 10 µM was determined as 65%. `O=C(NC(c1ccccc1)c1ccccc1)C1=NOC2(CCN(S(=O)(=O)c3ccc(Cl)s3)CC2)C1` [Example 40, 8-(5-chloro-thiophene-2-sulphonyl)-1-oxa-2,8-diaza-spiro[4,5]dec-2-ene-3 carboxylic acid benzhydryl-amide] yielded an inhibition at 10 µM of 45%. As to `Cc1ccc(S(=O)(=O)NC(Cc2ccccc2)C(=O)N2CCC3(CC2)CC(C(=O)NCCC#N)=NO3)cc1` (centres unmarked) [Example 41, 8-[3-phenyl-2-(toluene-4-sulphonylamino)-propionyl]-1-oxa-2,8-diaza-spiro[4,5]dec-2-ene-3-carboxylic acid (2-cyano-ethyl)-amide], the inhibition at 10 µM stood at 70%. The compound `CN(C)c1cccc(C(=O)N2CCC3(CC2)CC(C(=O)NCCC#N)=NO3)c1` [Example 43, 8-(3-dimethylamino-benzoyl)-1-oxa-2,8-diaza-spiro[4,5]dec-2-ene-3-carboxylic acid (2-cyano-ethyl)-amide] came in with an inhibition at 10 µM of 41%. As to `O=C(C1=NOC2(CCN(S(=O)(=O)Cc3ccccc3)CC2)C1)N1CCN(c2ccc(Cl)cc2)CC1` [Example 46, [4-(4-chloro-phenyl)-piperazin-1-yl]-(8-phenylmethane-sulphonyl-1-oxa-2,8-diaza-spiro[4,5]dec-2-en-3-yl)-methanone], the inhibition at 10 µM is 40%. `CC(=O)N1CCC2(CC1)CC(C(=O)NCc1ccccc1)=NO2` [Example 48, 8-acetyl-1-oxa-2,8-diaza-spiro[4,5]dec-2-ene-3-carboxylic acid benzylamide] gave an inhibition at 10 µM of 41%. Turning to `O=C(NCc1cc(F)ccc1F)C1=NOC2(CCN(S(=O)(=O)c3ccc(Cl)s3)CC2)C1` [Example 49, 8-(5-chloro-thiophene-2-sulphonyl)-1-oxa-2,8-diaza-spiro[4,5]dec-2-ene-3 carboxylic acid 2,5-difluoro-benzylamide], the inhibition at 10 µM was determined as 50%.

As to `CCOc1ccccc1CNC(=O)C1=NOC2(CCN(S(=O)(=O)Cc3ccccc3)CC2)C1` [Example 51, 8-phenylmethanesulphonyl-1-oxa-2,8-diaza-spiro[4,5]dec-2-ene-3-carboxylic acid 2-ethoxy-benzylamide], the inhibition at 10 µM came to 49%.

In the case of `CCc1ccc(C(=O)N2CCC3(CC2)CC(C(=O)NCc2cccs2)=NO3)cc1` [Example 52, 8-(4-ethyl-benzoyl)-1-oxa-2,8-diaza-spiro[4,5]dec-2-ene-3-carboxylic acid (thiophen-2-ylmethyl)-amide], the inhibition at 10 µM was determined as 60%. For `C=CCOC(=O)C(CC(=O)OC(C)(C)C)NC(=O)C1=NOC2(CCN(S(=O)(=O)c3cc(Cl)ccc3Cl)CC2)C1` (centres unmarked) [Example 53], the “5HT-uptake, 10 μM, % inhibition” value is given as 53%. On to `O=C(Nc1ccc2ccccc2c1)C1=NOC2(CCN(S(=O)(=O)c3ccc(OC(F)(F)F)cc3)CC2)C1` [Example 54, 8-(4-trifluoromethoxy-benzenesulphonyl)-1-oxa-2,8-diaza-spiro[4,5]dec-2-ene-3-carboxylic acid naphthalen-2-ylamide], for which the inhibition at 10 µM is 43%. For the compound `CCOC(=O)N1CCC(NC(=O)C2=NOC3(CCN(C(=O)c4ccc(F)cc4F)CC3)C2)CC1` [Example 56, 4-{[8-(2,4-difluoro-benzoyl)-1-oxa-2,8-diaza-spiro[4,5]dec-2-ene-3-carbonyl]-amino}-piperidine-1-carboxylic acid ethyl ester], at 10 µM the inhibition was 52%. Still for that read-out and setting: then `Cc1ccc(S(=O)(=O)N2CCC3(CC2)CC(C(=O)NCCN(C)C)=NO3)cc1` [Example 57, 8-(toluene-4-sulphonyl)-1-oxa-2,8-diaza-spiro[4,5]dec-2-ene-3-carboxylic acid (2-dimethylamino-ethyl)-amide], with 41%; and `CN(C)S(=O)(=O)N1CCC2(CC1)CC(C(=O)NCCc1ccc(Cl)cc1)=NO2` [Example 58, 8-dimethylsulphamoyl-1-oxa-2,8-diaza-spiro[4,5]dec-2-ene-3-carboxylic acid [2-(4-chlorophenyl)-ethyl]-amide], with 55%. As to `COc1ccc(C(=O)N2CCC3(CC2)CC(C(=O)NCc2ccc(C)o2)=NO3)cc1` [Example 59], the “5HT-uptake, 10 μM, % inhibition” value stood at 45%. As to `O=C(NCCc1ccc(Cl)cc1)C1=NOC2(CCN(S(=O)(=O)c3cccs3)CC2)C1` [Example 60, 8-(thiophene-2-sulphonyl)-1-oxa-2,8-diaza-spiro[4,5]dec-2-ene-3-carboxylic acid [2-(4-chlorophenyl)-ethyl]-amide], 10 µM produced 65% inhibition. On to `CN1CCCC1CCNC(=O)C1=NOC2(CCN(S(=O)(=O)c3ccc(Cl)s3)CC2)C1` (centres unmarked) [Example 61, 8-(5-chloro-thiophene-2-sulphonyl)-1-oxa-2,8-diaza-spiro[4,5]dec-2-ene-3-carboxylic acid [2-(1-methyl-pyrrolidin-2-yl)-ethyl]-amide], for which the inhibition at 10 µM was found to be 72%.

Regarding `CCOC(=O)N1CCC(NC(=O)C2=NOC3(CCN(C(=O)c4ccc(Br)cc4)CC3)C2)CC1` [Example 62, 4-{[8-(4-bromo-benzoyl)-1-oxa-2,8-diaza-spiro[4,5]dec-2-ene-3-carbonyl]-amino)-piperidine-l-carboxylic acid ethyl ester], the “5HT-uptake, 10 μM, % inhibition” value was 73%. On to `Cc1ccc(S(=O)(=O)N2CCC3(CC2)CC(C(=O)NCc2cc(Cl)cc(Cl)c2)=NO3)cc1` [Example 63, 8-(toluene-4-sulphonyl)-1-oxa-2,8-diaza-spiro[4,5]dec-2-ene-3-carboxylic acid 3,5-dichlorobenzylamide], for which the inhibition at 10 µM was determined as 55%.

In turn, `CCOC(=O)CCNC(=O)C1=NOC2(CCN(S(=O)(=O)CC34CCC(CC3=O)C4(C)C)CC2)C1` (centres unmarked) [Example 66, 3-{[8-(7,7-dimethyl-2-oxo-bicyclo[2.2.1]hept-1-ylmethane-sulphonyl)-1-oxa-2,8-diaza-spiro[4,5]dec-2-ene-3-carbonyl]-amino]-propionic acid ethyl ester] returned an inhibition at 10 µM of 40%. `COc1ccc(CNC(=O)C2=NOC3(CCN(S(=O)(=O)c4cc(Cl)ccc4Cl)CC3)C2)cc1OC` [Example 68, 8-(2,5-dichloro-benzenesulphonyl)-1-oxa-2,8-diaza-spiro[4,5]dec-2-ene-3-carboxylic acid 3,4-dimethoxy-benzylamide] showed an inhibition at 10 µM of 52%.

The compound `CN(C)S(=O)(=O)N1CCC2(CC1)CC(C(=O)N1CCN(c3ncnc4sccc34)CC1)=NO2` [Example 70, 3-(4-thieno[2,3-d]pyrimidin-4-yl-piperazine-1-carbonyl)-1-oxa-2,8-diaza-spiro[4,5]dec-2-ene-8-sulphonic acid dimethylamide] returned an inhibition at 10 µM of 54%.
